SMILES strings stand for the structures. Entries after “also recorded” stand apart in the source; their conditions may differ.

The results in this text go back to publication PMC8155176, “Reversible modulation of circadian time with chronophotopharmacology” (Nature Communications, 2021).

Data set [1] deals with U2OS cells. The data set can be described thus: Circadian period assay in Bmal1-dLuc U2OS reporter cells. The class given is cell-based, human. The protocol:
Next, we tested if the observed light-dependent CKIα inhibition translates into photomodulation of the circadian period in human U2OS cells (Fig. 2d). The Bmal1-dLuc reporter cell line contains the coding sequence of destabilized luciferase driven by the Bmal1 gene promoter sequence. The cell culture medium for luminescence recording includes a high concentration of luciferin (0.2 mM), a substrate for luciferase, which strongly absorbs UV light (Supplementary Fig. 30). […] As the circadian period change is directly correlated with the potency and concentration of the inhibitor[10], the cells were treated with photoswitchable modulators using a broad range of concentrations.
In comparison to the kinase assay, the direct use of UV light for preventing a thermal back-isomerization of the cis-isomer was not feasible due to the cell-damaging effect and the presence of luciferin in the medium. Therefore, the modulators were kept in the dark or photo-isomerized in DMSO prior to the addition, without further irradiation during the circadian assay. All three modulators lengthened the period in the U2OS cells both in the dark and upon irradiation (Fig. 2d). […] Altogether, based on the efficient generation of the cis-isomer under irradiation, retained potency and promising light-modulation of CKIα inhibition, the meta-substituted modulator 4 was identified as representing lead substitution pattern for further investigation.
Stable U2OS reporter cells harboring Bmal1-dLuc reporter were suspended in phenol red-free culture medium [DMEM (D2902, Sigma) supplemented with 10% fetal bovine serum, 3.5 mg/mL D-glucose, 3.7 mg/mL sodium bicarbonate, 0.29 mg/mL L-glutamine, 100 units/mL penicillin, and 100 µg/mL streptomycin] and plated onto a white, solid-bottom 384-well plates at 30 µL (3000 cells) per well. After 2 days, 40 µL of phenol red-free explant medium [DMEM (D2902, Sigma) supplemented with 2% B27 (Gibco), 10 mM HEPES, 3.5 mg/mL D-glucose, 0.38 mg/mL sodium bicarbonate, 0.29 mg/mL L-glutamine, 100 units/mL penicillin, 100 µg/mL streptomycin, and 0.2 mM luciferin; pH 7.2] was dispensed into each well, followed by the application of 0.5 μL of compounds (dissolved in DMSO; final 0.7% DMSO; pre-irradiated with UV for 60 min, white LED for 10 min, and/or green LED for 60 min when indicated). The plate was covered with an optically clear film, and subjected to irradiation with 530 nm LED lamp (3 × 550 mW, λmax = 530 nm, FWHM 36 nm, Sahlmann Photochemical Solutions) or 400 nm LED lamp (3 × 1000 mW, λmax = 400 nm, FWHM 11.9 nm, Sahlmann Photochemical Solutions) from 12 cm distance for 30 min. Compound handling and irradiation were conducted in a dark room under red lamp illumination. Luminescence was recorded every 100 min in a microplate reader, Infinite M200Pro (Tecan). For the phase control experiments, cellular light irradiation was performed in a dark 32 °C room and luminescence was recorded in a microplate reader Synergy H1 (BioTek) placed in the same room, to avoid possible effect of transient temperature change on the phase. Circadian period and phase were determined from luminescence rhythms by a curve fitting program MultiCycle (Actimetrics). Data from the first day was excluded from analysis, because of transient changes in luminescence upon medium change. Statistical significance was evaluated using two-way analysis of variance (ANOVA) followed by a Sidak’s multiple comparisons test or one-way ANOVA followed by a Tukey’s multiple comparisons test using Prism software (GraphPad Software).

The nature of data set [2]: Chemical stability under dark and irradiation conditions followed by LCMS. The class given is physicochemical. To be noted: 40 µM in kinase assay buffer or cell culture medium, dark, 365 nm 3 h, 400 nm 30 min. The protocol:
LCMS traces of stability studies
Supplementary Figure 8. Chemical stability of compound 3 under dark and irradiation conditions followed by LCMS. All the samples were prepared as 40 µM solution in buffer or cell culture medium. ‘Buffer’ and ‘medium’ samples were injected immediately upon dissolving compound 3, ‘buffer_3h_dark’ was injected after 3 h of keeping the solution in dark, ‘buffer_3h_365nm’ after irradiation of the sample for 3 h with UV light in kinase assay buffer, and ‘medium_30min_400nm’ after 30 min of irradiation with 400 nm in cell culture medium. The trans-isomer was followed at the retention time of 10.41-10.47 min and the cis-isomer at the retention time of 8.84-8.90 min. Mass spectra of both isomers in different […]
(1 picture or pasted object on this page, not shown here)

On to `Cc1nn(C)c(C)c1/N=N/c1cccc(CNc2ncnc3c2ncn3C(C)C)c1` [Compound 8], for which, in data set [1] (UV (365 nm) pre-irradiated), the “effect of UV light irradiation on period lengthening” value was “suppressed by UV light irradiation”. For the same molecule, the “recovery of biological activity upon back-isomerization with white light” value in data set [1] (UV light followed by white light) is on record as “full recovery”. Further, the “period lengthening effect under dark conditions” value in data set [1] (dark) was “strong period lengthening effect”. In addition, the “chemical stability (reduction or oxidation of the azo group)” value in data set [2] is on record as “Products of reduction or oxidation were not observed; also recorded: no observable reduction or oxidation”.

As for `CC(C)n1cnc2c(NCc3ccc(F)c(/N=N/c4c(F)cccc4F)c3F)ncnc21` [Compound 9], in data set [1] (8 μM (Fig. 5b)), the “period change, first 3 days, kept in dark” value worked out at 7 h; the “period lengthening, dark treatment of green-irradiated cells, additional 3 days” value was found to be 5 h; the “period lengthening, violet light treatment of dark-kept cells” value amounted to 8 h. Moreover, in data set [1] (8 μM, 400 nm in situ (Fig. 5b)), the “period lengthening after violet light on the third day of green-irradiated cells” value turned out to be 8 h. In data set [1] (8 μM, green light 530 nm in cellulo after 3 days (Fig. 5a)), the “period lengthening, three additional days after green light irradiation” value stood at 2 h. The “period change after photoisomerization with green light in vitro” value in data set [1] (8 µM, green light 530 nm pre-incubation (Fig. 4e)) amounted to 1 h. Moreover, the “period change, first 3 days, green light-irradiated cells” value in data set [1] (8 μM, green light in cellulo at start (Fig. 5b)) is on record as 2 h. Besides, the “period lengthening after green light in vitro and violet light in cellulo” value in data set [1] (8 µM, in situ back-photoisomerization 400 nm (Fig. 4e)) is listed as 4 h. Further, the “period lengthening vs DMSO, three additional days, non-irradiated” value in data set [1] (8 μM, kept dark (Fig. 5a)) was determined as 10 h. In data set [1] (8 µM, thermally adapted, dark (Fig. 4e)), the “period lengthening, trans-isomer (dark)” value is 4 h. Moreover, the “period change, first 3 days in the dark” value in data set [1] (8 μM, trans-9 applied (Fig. 5a)) stood at 5 h. Moreover, the “effect of violet light only on dark samples on the circadian period activity” value in data set [1] (violet light 400 nm in cellulo (Fig. 4e)) is on record as “no effect”. Also, in data set [2], the “chemical stability (reduction or oxidation of the azo group)” value is reported as “Products of reduction or oxidation were not”.
